Earlier results on 1 molecule are cited in US20040166561A1, “Novel intein and uses thereof” (priority 2001, published 2004).

For data set [1], the system named is RecA intein from Mycobacterium tuberculosis. Conditions: 0.2 mM zinc (6parts/million); in vitro, splicing in trans.
Data set [2] deals with T1, naturally split DnaE intein from Synechocystis sp. PCC6803 (Synechocystis sp., UniProt P74750).
T1 construct: by the naturally split DnaE intein from Synechocystis sp; PCC6803
Particulars: 0.2 mM zinc (6parts/million); in vitro, splicing in trans.

As to `[Zn+2]` [zinc], the “inhibition of protein splicing” value in data set [1] and in data set [2] was 90% in each case.
